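Values below derive from 48-hour exposures of cells grown in 96-well plates, with endpoints linearly interpolated between the two concentrations bracketing the appropriate inhibition level. GI50 = concentration required for 50% inhibition of growth.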 The source made the active and inactive calls. Rule as the data show it: active = GI50 up to about 1.1 µM and inactive = higher.
What was measured:
Test in all cases: growth of human tumour cells (NCI), 48 h
MCF7 = tested on: MCF7
KM12 = tested on: KM12
RXF 393 = tested on: RXF 393
EKVX = tested on: EKVX
HCC 2998 = tested on: HCC 2998
LOX IMVI = tested on: LOX IMVI
A549 = tested on: A549
NCI-H226 = tested on: NCI-H226
SK-MEL-28 = tested on: SK-MEL-28
HOP-92 = tested on: HOP-92
CAKI-1 = tested on: CAKI-1
A498 = tested on: A498
SR = tested on: SR
UO-31 = tested on: UO-31
SF-539 = tested on: SF-539
NCI-H460 = tested on: NCI-H460
HT-29 = tested on: HT-29
CCRF-CEM = tested on: CCRF-CEM
IGROV-1 = tested on: IGROV-1
Malme-3M = tested on: Malme-3M
HOP-62 = tested on: HOP-62
PC-3 = tested on: PC-3
SNB-19 = tested on: SNB-19
M14 = tested on: M14
786-0 = tested on: 786-0
Hs-578T = tested on: Hs-578T
SK-MEL-5 = tested on: SK-MEL-5
SK-MEL-2 = tested on: SK-MEL-2
NCI-H522 = tested on: NCI-H522
RPMI-8226 = tested on: RPMI-8226
MDA-MB-231 = tested on: MDA-MB-231
NCI-H23 = tested on: NCI-H23
OVCAR-8 = tested on: OVCAR-8
UACC-257 = tested on: UACC-257
HL-60 = tested on: HL-60
COLO 205 = tested on: COLO 205
TK-10 = tested on: TK-10
NCI/ADR-RES = tested on: NCI/ADR-RES
SN12C = tested on: SN12C
SK-OV-3 = tested on: SK-OV-3
OVCAR-3 = tested on: OVCAR-3
OVCAR-5 = tested on: OVCAR-5
OVCAR-4 = tested on: OVCAR-4
K562 = tested on: K562
U-251 = tested on: U-251
HCT-15 = tested on: HCT-15
DU-145 = tested on: DU-145
MDA-MB-435 = tested on: MDA-MB-435
SF-295 = tested on: SF-295
SNB-75 = tested on: SNB-75
MDA-N = tested on: MDA-N
ACHN = tested on: ACHN
BT-549 = tested on: BT-549
SF-268 = tested on: SF-268
HCT-116 = tested on: HCT-116
SW-620 = tested on: SW-620
MOLT-4 = tested on: MOLT-4
T47D = tested on: T47D
UACC-62 = tested on: UACC-62
M19-MEL = tested on: M19-MEL
KM-20L2 = tested on: KM-20L2
DMS-273 = tested on: DMS-273
HOP-18 = tested on: HOP-18
DMS-114 = tested on: DMS-114
LXFL 529 = tested on: LXFL 529
SNB-78 = tested on: SNB-78
DLD-1 = tested on: DLD-1

Measured: GI50

ClCCCCCc1c2nc(c(CCCCCCl)c3ccc([nH]3)c(CCCCCCl)c3nc(c(CCCCCCl)c4ccc1[nH]4)C=C3)C=C2
> 100 µM: HCT-15
active: DU-145 1 µM
inactive: MCF7 > 100 µM | KM12 > 100 µM | RXF 393 > 100 µM | EKVX > 100 µM | HCC 2998 > 100 µM | LOX IMVI > 100 µM | A549 > 100 µM | NCI-H226 > 100 µM | SK-MEL-28 > 100 µM | HOP-92 > 100 µM | CAKI-1 > 100 µM | A498 > 100 µM | SR > 100 µM | UO-31 > 100 µM | SF-539 > 100 µM | NCI-H460 > 100 µM | HT-29 > 100 µM | CCRF-CEM > 100 µM | IGROV-1 > 100 µM | Malme-3M > 100 µM | HOP-62 > 100 µM | PC-3 > 100 µM | SNB-19 > 100 µM | M14 > 100 µM | 786-0 > 100 µM | Hs-578T > 100 µM | SK-MEL-5 > 100 µM | SK-MEL-2 > 100 µM | NCI-H522 > 100 µM | RPMI-8226 > 100 µM | MDA-MB-231 > 100 µM | NCI-H23 > 100 µM | OVCAR-8 > 100 µM | UACC-257 > 100 µM | HL-60 > 100 µM | COLO 205 > 100 µM | TK-10 > 100 µM | NCI/ADR-RES > 100 µM | SN12C > 100 µM | SK-OV-3 > 100 µM | OVCAR-3 > 100 µM | OVCAR-5 > 100 µM | OVCAR-4 > 100 µM | K562 > 100 µM | U-251 > 100 µM | MDA-MB-435 > 100 µM | SF-295 > 100 µM | SNB-75 83.4 µM | MDA-N > 100 µM | ACHN > 100 µM | BT-549 > 100 µM | SF-268 > 100 µM | HCT-116 > 100 µM | SW-620 > 100 µM | MOLT-4 > 100 µM | T47D > 100 µM | UACC-62 > 100 µM

Cc1cc(O)nc(NN2C(Cl)C(=O)C2c2cccc(O)c2)n1 (stereo not given)
5.74 µM: HCT-15
inactive: KM12 7.1 µM | M19-MEL 6.19 µM | RXF 393 3.48 µM | EKVX 17.9 µM | HCC 2998 15.1 µM | LOX IMVI 4.53 µM | A549 4.44 µM | SK-MEL-28 26.5 µM | HOP-92 4.67 µM | SR 4.11 µM | UO-31 3.83 µM | SF-539 2.74 µM | KM-20L2 10.3 µM | NCI-H460 4.82 µM | HT-29 41.7 µM | DMS-273 3.13 µM | CCRF-CEM 4.63 µM | IGROV-1 4.8 µM | HOP-62 4.49 µM | SNB-19 3.48 µM | M14 7.13 µM | SK-MEL-5 12.2 µM | SK-MEL-2 4.43 µM | RPMI-8226 9.59 µM | HOP-18 2.39 µM | NCI-H23 5.73 µM | OVCAR-8 7.21 µM | UACC-257 18.7 µM | HL-60 4.26 µM | COLO 205 39.4 µM | TK-10 42.5 µM | SN12C 6.31 µM | OVCAR-3 3.14 µM | OVCAR-5 24.9 µM | OVCAR-4 > 100 µM | K562 2.7 µM | U-251 3.05 µM | SNB-75 1.64 µM | DMS-114 5.11 µM | ACHN 4.61 µM | SF-268 5.62 µM | LXFL 529 5 µM | HCT-116 2.87 µM | SNB-78 7.43 µM | SW-620 12.4 µM | MOLT-4 5.38 µM | UACC-62 3.37 µM

O=[N+]([O-])c1cccc(C2=NOC3CCCC23)c1 (stereo not given)
inactive: KM12 > 100 µM | M19-MEL > 100 µM | EKVX > 100 µM | HCC 2998 > 100 µM | A549 > 100 µM | NCI-H226 > 100 µM | SK-MEL-28 > 100 µM | HOP-92 > 100 µM | A498 > 100 µM | UO-31 > 100 µM | SF-539 > 100 µM | NCI-H460 > 100 µM | HT-29 > 100 µM | DMS-273 > 100 µM | CCRF-CEM > 100 µM | IGROV-1 > 100 µM | Malme-3M > 100 µM | HOP-62 > 100 µM | SNB-19 25.2 µM | M14 > 100 µM | 786-0 > 100 µM | SK-MEL-5 > 100 µM | SK-MEL-2 > 100 µM | NCI-H522 > 100 µM | RPMI-8226 > 100 µM | HOP-18 > 100 µM | NCI-H23 > 100 µM | OVCAR-8 > 100 µM | UACC-257 > 100 µM | HL-60 > 100 µM | COLO 205 > 100 µM | TK-10 > 100 µM | SN12C > 100 µM | SK-OV-3 > 100 µM | OVCAR-3 > 100 µM | OVCAR-5 > 100 µM | OVCAR-4 > 100 µM | K562 > 100 µM | U-251 > 100 µM | SF-295 > 100 µM | SNB-75 > 100 µM | DMS-114 > 100 µM | ACHN > 100 µM | SF-268 > 100 µM | LXFL 529 > 100 µM | HCT-116 > 100 µM | DLD-1 > 100 µM | SNB-78 > 100 µM | SW-620 > 100 µM | MOLT-4 > 100 µM | UACC-62 > 100 µM
active: CAKI-1 < 0.01 µM
> 100 µM: HCT-15

O=C(CCN1CC2CCC(CC2)C1)c1cccs1
20.4 µM: HCT-15
inactive: MCF7 8.59 µM | KM12 19.9 µM | RXF 393 19 µM | EKVX 19.1 µM | HCC 2998 15.6 µM | LOX IMVI 10.7 µM | A549 23.9 µM | NCI-H226 > 100 µM | SK-MEL-28 17.1 µM | HOP-92 6.01 µM | CAKI-1 18.7 µM | A498 > 87.7 µM | SR 4.49 µM | UO-31 8.77 µM | SF-539 20.9 µM | NCI-H460 18.7 µM | HT-29 24.5 µM | CCRF-CEM 1.94 µM | IGROV-1 8.73 µM | Malme-3M 21.1 µM | HOP-62 19.3 µM | PC-3 16.7 µM | SNB-19 > 53 µM | M14 16.4 µM | 786-0 5.35 µM | Hs-578T 27.3 µM | SK-MEL-5 40.1 µM | SK-MEL-2 17.3 µM | NCI-H522 17.4 µM | RPMI-8226 1.85 µM | MDA-MB-231 18.2 µM | NCI-H23 18.4 µM | OVCAR-8 18.7 µM | UACC-257 16.1 µM | HL-60 20.7 µM | COLO 205 18.5 µM | TK-10 8.73 µM | NCI/ADR-RES 24.6 µM | SN12C 18.1 µM | SK-OV-3 > 37.8 µM | OVCAR-3 21.1 µM | OVCAR-5 16.4 µM | OVCAR-4 30.8 µM | K562 17.5 µM | U-251 18.3 µM | DU-145 17.6 µM | MDA-MB-435 20.8 µM | SF-295 > 100 µM | SNB-75 19.2 µM | MDA-N 17.1 µM | ACHN 18.7 µM | BT-549 21.4 µM | SF-268 21.2 µM | HCT-116 19.1 µM | SW-620 2.79 µM | MOLT-4 3.32 µM | T47D 6.92 µM | UACC-62 17.7 µM

[O-][S+](Cc1cc2c(cc1Br)OCO2)c1ccccc1 (stereo not given)
34.4 µM: HCT-15
inactive: KM12 17.9 µM | M19-MEL 44.5 µM | RXF 393 40.6 µM | EKVX > 100 µM | HCC 2998 > 100 µM | LOX IMVI 15.7 µM | A549 > 100 µM | NCI-H226 > 100 µM | SK-MEL-28 98.2 µM | HOP-92 83.9 µM | CAKI-1 51.5 µM | A498 > 100 µM | UO-31 47.5 µM | SF-539 32.7 µM | KM-20L2 71.4 µM | NCI-H460 41.4 µM | HT-29 34 µM | DMS-273 58.9 µM | CCRF-CEM 19.6 µM | IGROV-1 39.4 µM | Malme-3M 49.1 µM | HOP-62 > 100 µM | SNB-19 > 100 µM | M14 48.2 µM | 786-0 39.1 µM | SK-MEL-5 61.5 µM | SK-MEL-2 > 100 µM | NCI-H522 21.6 µM | RPMI-8226 24.8 µM | HOP-18 41.3 µM | NCI-H23 68.2 µM | OVCAR-8 41.4 µM | UACC-257 51.4 µM | HL-60 21.4 µM | COLO 205 34.2 µM | TK-10 > 100 µM | SN12C 48 µM | SK-OV-3 > 100 µM | OVCAR-3 35.3 µM | OVCAR-5 > 100 µM | OVCAR-4 67.6 µM | K562 27.5 µM | U-251 30.3 µM | SF-295 > 100 µM | SNB-75 > 100 µM | DMS-114 23.2 µM | ACHN 64.6 µM | SF-268 59.2 µM | LXFL 529 44 µM | HCT-116 44.9 µM | DLD-1 24.2 µM | SNB-78 > 100 µM | SW-620 15.4 µM | MOLT-4 26.5 µM | UACC-62 33.4 µM
